{"source": "patent US8354403B2", "about": "“Pyrrolidine derived beta 3 adrenergic receptor agonists” (Merck Sharp & Dohme Corp., priority 2009, dated 2013)", "data": [{"molecular_target": "T1, human β3 adrenergic receptor (Homo sapiens, UniProt P13945)", "T1 construct": "expressed in transfected cells; host or cells: Chinese hamster ovary (CHO) cells, stably transfected", "T1 sequence (P13945 whole entry)": "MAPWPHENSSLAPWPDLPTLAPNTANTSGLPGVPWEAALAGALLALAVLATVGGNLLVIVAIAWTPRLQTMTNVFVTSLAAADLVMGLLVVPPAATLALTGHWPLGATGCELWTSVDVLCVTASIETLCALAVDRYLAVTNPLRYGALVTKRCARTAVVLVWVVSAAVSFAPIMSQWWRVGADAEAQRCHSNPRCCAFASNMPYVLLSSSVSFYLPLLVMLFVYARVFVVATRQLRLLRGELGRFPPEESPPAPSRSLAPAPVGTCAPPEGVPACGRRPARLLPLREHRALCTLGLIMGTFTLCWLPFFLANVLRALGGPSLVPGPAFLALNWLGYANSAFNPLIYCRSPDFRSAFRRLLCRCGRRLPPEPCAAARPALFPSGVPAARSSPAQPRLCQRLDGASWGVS", "experiment": "Beta-3 agonist in vitro functional assay: cAMP production (LANCE TR-FRET) in CHO cells stably transfected with the cloned β3 receptor", "format": "cell-based", "conditions": "Table 10; Beta-3 agonist in vitro functional assay; read-out: Human β3 agonist functional activity", "how_it_was_run": "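CHO cells stably expressing the cloned receptor, in HEPES-buffered HBSS with BSA and 0.6 mM IBMX, 6,000 cells/well, exposed to compound for 30 min at RT. cAMP read by LANCE TR-FRET against a cAMP standard curve. Isoproterenol defines maximal stimulation.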", "units": {"EC50": "nM"}, "values": [{"molecule": "CC(C(=O)NCC1CC1)N1CCN(C(=O)c2ccc(C[C@@H]3CC[C@H]([C@H](O)c4ccccc4)N3)cc2)CC1", "note": "(stereo partly drawn) [Example 447]", "EC50": "10 to 99.9"}, {"molecule": "CC(C(=O)NCCC1CC1)N1CCN(C(=O)c2ccc(C[C@@H]3CC[C@H]([C@H](O)c4ccccc4)N3)cc2)CC1", "note": "(stereo partly drawn) [Example 448]", "EC50": "10 to 99.9"}, {"molecule": "CC(C(=O)NCC1(O)CC1)N1CCN(C(=O)c2ccc(C[C@@H]3CC[C@H]([C@H](O)c4ccccc4)N3)cc2)CC1", "note": "(stereo partly drawn) [Example 449]", "EC50": "10 to 99.9"}, {"molecule": "CC(C(=O)NCC1CC1(C)C)N1CCN(C(=O)c2ccc(C[C@@H]3CC[C@H]([C@H](O)c4ccccc4)N3)cc2)CC1", "note": "(stereo partly drawn) [Example 450]", "EC50": "10 to 99.9"}, {"molecule": "CC(C(=O)NC(C1CC1)C1CC1)N1CCN(C(=O)c2ccc(C[C@@H]3CC[C@H]([C@H](O)c4ccccc4)N3)cc2)CC1", "note": "(stereo partly drawn) [Example 451]", "EC50": "10 to 99.9"}, {"molecule": "CC(C(=O)NCC1CCC1)N1CCN(C(=O)c2ccc(C[C@@H]3CC[C@H]([C@H](O)c4ccccc4)N3)cc2)CC1", "note": "(stereo partly drawn) [Example 452]", "EC50": "1 to 9.9"}, {"molecule": "CC(C(=O)NCC1(C)CCC1)N1CCN(C(=O)c2ccc(C[C@@H]3CC[C@H]([C@H](O)c4ccccc4)N3)cc2)CC1", "note": "(stereo partly drawn) [Example 453]", "EC50": "1 to 9.9"}, {"molecule": "CC(C)C1CC(CNC(=O)C(C)N2CCN(C(=O)c3ccc(C[C@@H]4CC[C@H]([C@H](O)c5ccccc5)N4)cc3)CC2)C1", "note": "(stereo partly drawn) [Example 454]", "EC50": "10 to 99.9"}, {"molecule": "CC(C(=O)NCC1CCCO1)N1CCN(C(=O)c2ccc(C[C@@H]3CC[C@H]([C@H](O)c4ccccc4)N3)cc2)CC1", "note": "(stereo partly drawn) [Example 455]", "EC50": "10 to 99.9"}, {"molecule": "CC(C(=O)NC1CCCC1)N1CCN(C(=O)c2ccc(C[C@@H]3CC[C@H]([C@H](O)c4ccccc4)N3)cc2)CC1", "note": "(stereo partly drawn) [Example 456]", "EC50": "10 to 99.9"}, {"molecule": "CC(C(=O)NC1CCOC1)N1CCN(C(=O)c2ccc(C[C@@H]3CC[C@H]([C@H](O)c4ccccc4)N3)cc2)CC1", "note": "(stereo partly drawn) [Example 457]", "EC50": "10 to 99.9"}, {"molecule": "CC(C(=O)NC1CCNC1=O)N1CCN(C(=O)c2ccc(C[C@@H]3CC[C@H]([C@H](O)c4ccccc4)N3)cc2)CC1", "note": "(stereo partly drawn) [Example 458]", "EC50": "100 to 999"}, {"molecule": "CC(C(=O)NC1CCN(C)C1=O)N1CCN(C(=O)c2ccc(C[C@@H]3CC[C@H]([C@H](O)c4ccccc4)N3)cc2)CC1", "note": "(stereo partly drawn) [Example 459]", "EC50": "< 1"}, {"molecule": "CC(C(=O)NCC(=O)N1CCCC1)N1CCN(C(=O)c2ccc(C[C@@H]3CC[C@H]([C@H](O)c4ccccc4)N3)cc2)CC1", "note": "(stereo partly drawn) [Example 460]", "EC50": "10 to 99.9"}, {"molecule": "CC(C(=O)NCc1cnoc1)N1CCN(C(=O)c2ccc(C[C@@H]3CC[C@H]([C@H](O)c4ccccc4)N3)cc2)CC1", "note": "(stereo partly drawn) [Example 461]", "EC50": "10 to 99.9"}, {"molecule": "CC(C(=O)NCc1ncco1)N1CCN(C(=O)c2ccc(C[C@@H]3CC[C@H]([C@H](O)c4ccccc4)N3)cc2)CC1", "note": "(stereo partly drawn) [Example 462]", "EC50": "10 to 99.9"}, {"molecule": "CC(C(=O)NCc1nccn1C)N1CCN(C(=O)c2ccc(C[C@@H]3CC[C@H]([C@H](O)c4ccccc4)N3)cc2)CC1", "note": "(stereo partly drawn) [Example 463]", "EC50": "100 to 999"}, {"molecule": "Cc1c(CNC(=O)C(C)N2CCN(C(=O)c3ccc(C[C@@H]4CC[C@H]([C@H](O)c5ccccc5)N4)cc3)CC2)cnn1C", "note": "(stereo partly drawn) [Example 464]", "EC50": "10 to 99.9"}, {"molecule": "CCc1noc(CNC(=O)C(C)N2CCN(C(=O)c3ccc(C[C@@H]4CC[C@H]([C@H](O)c5ccccc5)N4)cc3)CC2)n1", "note": "(stereo partly drawn) [Example 465]", "EC50": "10 to 99.9"}, {"molecule": "CC(C(=O)NCc1nnc2n1CCC2)N1CCN(C(=O)c2ccc(C[C@@H]3CC[C@H]([C@H](O)c4ccccc4)N3)cc2)CC1", "note": "(stereo partly drawn) [Example 466]", "EC50": "100 to 999"}, {"molecule": "CC(C(=O)NCc1cn2ccsc2n1)N1CCN(C(=O)c2ccc(C[C@@H]3CC[C@H]([C@H](O)c4ccccc4)N3)cc2)CC1", "note": "(stereo partly drawn) [Example 467]", "EC50": "10 to 99.9"}, {"molecule": "CC(C(=O)NC1CCOCC1)N1CCN(C(=O)c2ccc(C[C@@H]3CC[C@H]([C@H](O)c4ccccc4)N3)cc2)CC1", "note": "(stereo partly drawn) [Example 468]", "EC50": "100 to 999"}, {"molecule": "CC(C(=O)NC1CCS(=O)(=O)CC1)N1CCN(C(=O)c2ccc(C[C@@H]3CC[C@H]([C@H](O)c4ccccc4)N3)cc2)CC1", "note": "(stereo partly drawn) [Example 469]", "EC50": "10 to 99.9"}, {"molecule": "CC(C(=O)NC1(c2ccccn2)CC1)N1CCN(C(=O)c2ccc(C[C@@H]3CC[C@H]([C@H](O)c4ccccc4)N3)cc2)CC1", "note": "(stereo partly drawn) [Example 470]", "EC50": "10 to 99.9"}]}]}
